In patent publication US20230391714A1, “INHIBITORS OF THE INTERACTION BETWEEN TRIP8B AND HCN CHANNELS AND USES THEREOF FOR TREATING NEUROLOGICAL DISEASES AND DISORDERS” (Northwestern University, priority 2022, published 2023) one finds IC50 data, which are given here for 22 compounds.

This experiment deals with TRIP8b-HCN1c40 (Homo sapiens (Human), UniProt Q8IYB4). Description: TRIP8b-HCN1c40 AlphaScreen assay. The experiment is classed as binding. How it is done:
AlphaScreen Assay. 20 nM ofGST-tagged HCNlc40 protein (corresponding to the C terminal 40 amino acids of HCN1) was incubated with 200 nM of His-tagged TRIP8b(241-602) and varying concentrations of the test compound as described in our prior report (Han et al., 2015). After a 3 h incubation, anti-GST AlphaScreen acceptor beads were added for 1.5 h followed by AlphaScreen nickel chelate donor beads for 1.5 h. AlphaScreen signal was quantified using a PerkinElmer (Waltham, MA) EnSpire multimode plate reader.
For orientation: In Alpha technology, singlet oxygen from a donor bead excites a nearby acceptor bead.

Where [1] appears, read: activity ranges, read-out: TRIP8b-HCN1c40 Alphascreen IC50 activity.
The mark [2] stands for this setting: read-out: TRIP8b-HCN1c40 Alphascreen IC50.

Molecules are shown by their SMILES. Read-outs that look alike come from different tables or passages of the source.

TRIP8b-HCN1c40, sequence (Q8IYB4 265-626): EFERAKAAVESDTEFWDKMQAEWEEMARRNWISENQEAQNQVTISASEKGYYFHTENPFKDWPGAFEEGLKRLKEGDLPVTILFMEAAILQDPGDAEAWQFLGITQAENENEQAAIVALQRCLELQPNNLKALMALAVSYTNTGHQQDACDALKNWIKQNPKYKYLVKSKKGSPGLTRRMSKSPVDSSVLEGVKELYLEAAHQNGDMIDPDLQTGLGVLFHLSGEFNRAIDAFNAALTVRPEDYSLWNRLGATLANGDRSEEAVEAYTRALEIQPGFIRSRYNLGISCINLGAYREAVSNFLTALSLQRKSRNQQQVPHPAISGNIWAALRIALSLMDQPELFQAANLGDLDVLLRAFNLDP

The term IC50 denotes the concentration that inhibits the measured activity by half. Consider `CN1CCN(Cc2cc(-c3cc(Cl)cc(Cl)c3)ccc2OCC(=O)Nc2ccc(Cl)c(Cl)c2)CC1` [NUCC-0202003], for which the IC50 was less than 1 µM under setting [1] and less than 0.74 µM under setting [2].
For `CN1CCN(Cc2cc(-c3c(Cl)cc(Cl)cc3Cl)ccc2OCC(=O)NCc2ccc(Cl)cc2)CC1` [NUCC-0201970], the IC50 under setting [2] is less than 0.74 µM.
As to `CN1CCN(Cc2cc(-c3ccc(Cl)c(Cl)c3)ccc2COC(=O)Nc2ccc3c(c2)OCO3)CC1` [NUCC-0202017], the IC50 was less than 1 µM under setting [1] and less than 0.74 µM under setting [2].
As for `CCN(CCO)Cc1cc(-c2ccc(C)cc2)ccc1OCC(=O)NCc1ccc(O)cc1` [NUCC-0201605], the IC50 under setting [2] is 35 µM.
Take `Cc1ccc(NC(=O)COc2ccc(-c3cccc(C)c3)cc2CN2CC[C@H](N)C2)cc1` [NUCC-0201618]: the IC50 runs as follows: under setting [1], 5 to 10 µM; under setting [2], 8.8 µM.
The corresponding values for `CN1CCN(Cc2cc(-c3ccc(Cl)c(Cl)c3)ccc2OCC(=O)Nc2ccc(Cl)c(Cl)c2)CC1` [NUCC-0202002] are less than 1 µM and less than 0.74 µM.
For `Cc1ccc(-c2ccc(OCC(=O)NCc3ccc(Cl)cc3)c(CN3CCC(N(C)C)CC3)c2)cc1` [NUCC-0201607], the IC50 reads like this: under setting [1], 5 to 10 µM; under setting [2], 5.5 µM.
As to `Cc1ccc(-c2ccc(OC(C)C(=O)NCc3ccc(Cl)cc3)c(CN3CCN(C)CC3)c2)cc1` (centres unmarked) [NUCC-0202031], the IC50 by setting is: under setting [1], 2 to 5 µM; under setting [2], 3.4 µM.
The corresponding values for `CN1CCN(Cc2cc(-c3ccc(Cl)c(Cl)c3)ccc2OCC(=O)NCc2cccc(Cl)c2)CC1` [NUCC-0201986] are 1 to 2 µM and 1.1 µM.
Taken in the same sequence, the figures for `CN1CCN(Cc2cc(-c3ccc(Cl)c(Cl)c3)ccc2OCCNCc2ccc(Cl)cc2)CC1` [NUCC-0201976] were less than 1 µM and 0.83 µM.
Taken in the same sequence, the figures for `Cc1ccc(-c2ccc(OCC(=O)NCc3ccccc3)c(CN3CCCN(C)CC3)c2)cc1` [NUCC-0201598] were 10 to 20 µM and 20 µM.
Turning to `Cc1cccc(-c2ccc(OCC(=O)NCc3cccnc3)c(CN3CC[C@H](N)C3)c2)c1` [NUCC-0201626], the IC50 under setting [2] was greater than 40 µM.
With `CN1CCN(Cc2cc(-c3ccc(Cl)c(Cl)c3)ccc2OCC(=O)NCc2ccc(C(F)(F)F)cc2)CC1` [NUCC-0201982], the IC50 under setting [1] fell in the range of 2 to 5 µM and the IC50 under setting [2] amounted to 2.5 µM.
Taken in the same sequence, the figures for `CN1CCN(Cc2cc(-c3ccc(Cl)cc3Cl)ccc2OCC(=O)NCc2ccc(Cl)cc2)CC1` [NUCC-0202054] were less than 1 µM and less than 0.74 µM.
Taken in the same sequence, the figures for `CN1CCN(Cc2cc(-c3ccc(F)cc3)ccc2OCC(=O)NCc2ccc(C(F)(F)F)cc2)CC1` [NUCC-0201103] were 10 to 20 µM and 15 µM.
For the compound `CN1CCN(Cc2cc(-c3ccncc3)ccc2OCC(=O)Nc2ccc(Cl)c(Cl)c2)CC1` [NUCC-0202006], the IC50 runs as follows: under setting [1], 5 to 10 µM; under setting [2], 5.3 µM.
Taken in the same sequence, the figures for `Cc1ccc(-c2ccc(OCC(=O)NCc3ccc(F)cc3)c(CN3CCC(N(C)C)CC3)c2)cc1` [NUCC-0201609] were 10 to 20 µM and 16 µM.
Regarding `CC(Oc1ccc(-c2cc(Cl)cc(Cl)c2)cc1CN1CCN(C)CC1)C(=O)NCc1ccc(Cl)cc1` (centres unmarked) [NUCC-0202028], the IC50 is, setting by setting: under setting [1], less than 1 µM; under setting [2], 0.86 µM.
The corresponding values for `CN1CCN(Cc2cc(-c3ccc(Cl)c(Cl)c3)ccc2OCC(=O)N2CCc3ccccc3C2)CC1` [NUCC-0201990] are less than 1 µM and less than 0.74 µM.
The corresponding values for `CN1CCN(Cc2cc(-c3cccc(S(C)(=O)=O)c3)ccc2OCC(=O)Nc2ccc(Cl)c(Cl)c2)CC1` [NUCC-0202022] are 2 to 5 µM and 2.7 µM.
The corresponding values for `Cc1ccc(C(C)NC(=O)C(C)Oc2ccc(-c3cc(Cl)cc(-c4cc(Cl)cc(Cl)c4)c3)cc2CN2CCN(C)CC2)cc1` (centres unmarked) [NUCC-0202050] are less than 1 µM and less than 0.74 µM.
In the case of `Cc1ccc(-c2ccc(OCC(=O)N[C@H](C)c3ccccc3)c(CN3CCOCC3)c2)cc1` [NUCC-0201606], the IC50 is, setting by setting: under setting [1], 20 to 40 µM; under setting [2], 28 µM.
